Laboratory results published in patent publication US20260158031A1, “AROMATIC HETEROCYCLIC COMPOUND, PHARMACEUTICAL COMPOSITION CONTAINING THE SAME, AND USE THEREOF” (HANG ZHOU YUHONG PHARMATECH CO., LTD., priority 2021, published 2026).
pIC50: −log10 of the molar value. Each block holds one compound with its values, some of them ahead of it.

Columns and labels:
[1] = tested on: p-STAT5 under stimulation with IL-15 in PBMCs; assay: IL-15 stimulated hPBMC p-STAT5 ELISA; assay type: cell-based; conditions: Homo sapiens, PBMC, 45 min compound, 30 min IL-15, ELISA
Experimental: Based on the mechanism of the JAK-STAT pathway, the cytokine IL-15 was adopted to stimulate hPBMC cells, and the downstream STAT5 phosphorylation level was taken as a detection indicator to evaluate the effect of the compound on the JAK-STAT pathway.
• 1. Seeding plate for PBMC cell counting: 90 μL of PBMCs were seeded in a 96-well plate (PBMC cell density: 80,000/well). • 2. Treatment of compound to be tested: after the cells were seeded on the plate, administration treatment was performed immediately. The drug to be tested was 5 μL/well (with final concentration of 1, 0.5, 0.1, 0.05, 0.01, and 0.005 μM), and the plate was incubated in a 37° C. incubator for 45 min. • 3. Stimulation with cytokine IL-15: the cells were stimulated with 5 μL of IL-15 and incubated at 37° C. for 30 min. • 4. Protein sample collection: the cells were collected in a centrifuge tube and centrifuged for 5 min. The supernatant was discarded after the centrifuging, and the cells were lysed with 1× Cell Extraction Buffer PTR. • 5. p-STAT5 detection: detection was conducted according to the requirements of a ELISA kit.
Experimental results: IC50 values of compounds on p-STAT5 under stimulation with IL-15 in PBMCs

[2] = tested on: collagen-induced mouse arthritis model; assay: Collagen-induced mouse arthritis model (mCIA); assay type: in vivo, DBA/1J mice; conditions: female DBA/1J CIA mice, 50 mg/kg once a day, FIG. 2
Text: Objective of Experiment: to test the immunosuppressive activity of YZ001052 in a mCIA model. PF-06651600 was used as a positive control compound.
Complete and incomplete Freund's adjuvants were mixed with a chicken type II collagen solution in equal proportions to form an emulsifier. Except for the blank control group, on Day 0, a mixture of a complete Freund's adjuvant and the chicken type II collagen solution was subcutaneously injected into the tail roots and thigh roots of the mice, with 100 μL being injected subcutaneously at the tail root of each mouse; and 50 μL being injected subcutaneously at each of the two thigh roots of each mouse (primary immunization). On day 21, the mice were subcutaneously injected with 200 μL of a mixture of an incomplete Freund's adjuvant and the chicken type II collagen solution as a booster injection (second immunization). […] Measurement of paw thickness: the thicknesses of the left and right hind feet of the mice were measured with a vernier caliper to serve as the paw swelling degree and recorded, and the detection frequency was once every 3 days.

[3] = target: T1, JAK3 kinase (Homo sapiens, UniProt P52333); assay: Mobility shift assay, in vitro JAK3 kinase inhibitory activity; assay type: biochemical
T1 sequence (P52333 1-1124): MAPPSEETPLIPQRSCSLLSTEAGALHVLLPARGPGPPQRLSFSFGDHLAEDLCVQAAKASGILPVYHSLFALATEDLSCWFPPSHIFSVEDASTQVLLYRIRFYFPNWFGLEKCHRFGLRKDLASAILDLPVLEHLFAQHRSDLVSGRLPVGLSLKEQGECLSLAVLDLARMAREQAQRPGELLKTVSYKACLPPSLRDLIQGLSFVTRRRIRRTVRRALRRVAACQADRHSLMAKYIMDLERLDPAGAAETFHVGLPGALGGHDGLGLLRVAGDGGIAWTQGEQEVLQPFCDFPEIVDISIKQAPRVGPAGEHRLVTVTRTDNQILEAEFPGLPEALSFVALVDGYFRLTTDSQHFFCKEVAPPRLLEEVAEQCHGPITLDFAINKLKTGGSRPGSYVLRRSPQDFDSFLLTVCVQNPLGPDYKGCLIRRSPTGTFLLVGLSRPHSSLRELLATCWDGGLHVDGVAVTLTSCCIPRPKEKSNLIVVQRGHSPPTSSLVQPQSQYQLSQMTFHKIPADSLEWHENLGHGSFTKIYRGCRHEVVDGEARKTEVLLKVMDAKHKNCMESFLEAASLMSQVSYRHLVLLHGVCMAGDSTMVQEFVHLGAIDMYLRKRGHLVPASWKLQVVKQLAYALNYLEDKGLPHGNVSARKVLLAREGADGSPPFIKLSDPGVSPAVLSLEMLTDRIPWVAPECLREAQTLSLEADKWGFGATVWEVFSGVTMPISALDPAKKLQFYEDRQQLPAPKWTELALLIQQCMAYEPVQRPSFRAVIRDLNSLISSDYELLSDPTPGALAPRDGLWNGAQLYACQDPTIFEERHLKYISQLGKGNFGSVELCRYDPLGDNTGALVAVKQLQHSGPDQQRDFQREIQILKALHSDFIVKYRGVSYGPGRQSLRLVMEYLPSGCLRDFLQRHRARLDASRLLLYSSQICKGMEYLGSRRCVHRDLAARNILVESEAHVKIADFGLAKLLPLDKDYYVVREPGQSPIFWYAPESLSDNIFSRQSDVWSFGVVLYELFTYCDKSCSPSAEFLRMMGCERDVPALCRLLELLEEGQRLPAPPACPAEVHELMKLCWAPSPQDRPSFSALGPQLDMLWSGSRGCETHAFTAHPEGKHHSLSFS
Experimental: A Mobility shift assay was adopted to detect compounds to be tested (see list below) for in vitro inhibitory activity on the enzyme activity of JAK3 kinase.
The compound was dissolved in 100% DMSO to formulate a 10 mM stock solution, which was stored in a −20° C. refrigerator with protection from light.
The compounds were diluted with gradients into solutions with a final concentration of 100 times in a 384-well plate. Then 250 nL was transferred to a 384 reaction plate with Echo550 for later use. 250 nL of 100% DMSO was added into the negative control well and the positive control well respectively. • (3) A kinase solution with a final concentration of 2.5 times was formulated with the 1× Kinase buffer. • (4) The compound wells and the positive control wells were added with 10 μL of the kinase solution with the final concentration of 2.5 times respectively; the negative control wells were added with 10 μL of the 1× Kinase buffer. • (5) The wells were centrifuged at 1,000 rpm for 30 seconds, mixed well by shaking, and then incubated at room temperature for 10 minutes. • (6) A mixed solution of ATP and Kinase substrate 22 with a final concentration of 25/15 times was formulated with a 1× Kinase buffer. • (7) The compound wells, positive control wells and negative control wells of the 384 reaction plate were respectively added with 15 μL of a mixed solution of ATP and the substrate at the final concentration of 25/15 times to start the reaction. • (8) The 384-well plate was centrifuged at 1,000 rpm for 30 seconds, mixed well by shaking, and then incubated at room temperature for 30 minutes. • (9) 30 μL of a detection termination solution was added to stop the kinase reaction, centrifuged at 1,000 rpm for 30 seconds, and mixed well by shaking. • (10) The conversion rate was read with Caliper EZ Reader.
% Inhibition=(Conversion %_max−Conversion %_sample)/(Conversion %_max−Conversion %_min)×100 (1) Calculation Equation
Among them: Conversion %_sample was the conversion rate reading of the sample; Conversion %_min was the mean value of the negative control wells, representing the conversion rate reading of the wells without enzyme activity; Conversion % max was the mean value of the positive control wells, representing the conversion rate reading of the wells without compound inhibition; and % Inhibition represented the percentage inhibition rate.
• by taking the log value of concentration as the X axis and taking the percent inhibition rate as the Y axis, a dose-response curve is fitted by adopting the log (inhibitor) vs. response-Variable slope of the analysis software GraphPad Prism 5, so as to obtain the IC50 value of each compound on the enzyme activity. The calculation equation was Y=Bottom+ (Top−Bottom)/(1+10^((Log IC50−X)*HillSlope)).

[4] = target: JAK1 (Homo sapiens, UniProt P23458); assay: Kinase selectivity experiment, mobility shift assay, JAK1; assay type: biochemical; conditions: Example 137
Experimental: (§1) The compounds were diluted with gradients into solutions with a final concentration of 100 times in a 384-well plate. Then 250 nL was transferred to a 384 reaction plate with Echo550 for later use. […]

[5] = target: JAK2 (Homo sapiens, UniProt O60674); assay: Kinase selectivity experiment, mobility shift assay, JAK2; assay type: biochemical; conditions: Example 137
Experimental: as §1

[6] = target: TYK2 (Homo sapiens, UniProt P29597); assay: Kinase selectivity experiment, mobility shift assay, TYK2; assay type: biochemical; conditions: Example 137
Experimental: as §1

[7] = In vivo exposure detection in SD rats (plasma, LC-MS/MS); conditions: IG 20 mg/kg, average value
Experimental: Preparation and processing of standard curves and quality control samples: the compound stock solution was taken and diluted with 50% methanol and water into standard working solutions containing respective compounds at concentrations of 20, 40, 100, 200, 400, 1,000, 2,000, 4,000, and 10,000 ng/mL respectively and quality control working solutions at concentrations of 60, 600 and 8,000 ng/mL respectively. Each 47.5 μL of blank rat plasma was taken and added with 2.50 μL of a standard curve working solution and a quality control working solution respectively to prepare standard curve samples containing respective compounds at concentrations of 1.00, 2.00, 5.00, 10.00, 20.00, 50.00, 100.00, 200.00 and 500.00 ng/mL and quality control samples with concentrations of 3.00, 30.00 and 400.00 ng/mL. The samples were respectively added with 200 μL of acetonitrile (containing 2 ng/mL of verapamil as an internal standard), vortexed with shaking for 3 min, and then centrifuged at 20,000 rcf and 4° C. for 10 min, and the supernatant was taken for LC-MS/MS analysis.
Preparation and processing of plasma sample to be tested: 50 μL of the plasma sample was taken, added with 200 μL of acetonitrile (containing 2 ng/ml of verapamil as an internal standard), vortexed with shaking for 3 min, and then centrifuged at 20,000 rcf and 4° C. for 10 min, and […] for LC-MS/MS analysis.

[8] = tested on: SRBC mouse model; assay: SRBC-induced delayed type hypersensitivity (DTH) in mice; assay type: in vivo; conditions: male Balb/c mice, 100 mg/kg by gavage once a day, day 0 to day 6, FIG. 1
Experimental: PF-06651600 was used as a positive control compound.
Drug preparation: the compound was weighed and added with a 0.5% CMC-Na solution to prepare a drug suspension (with an administration dose of 10 mg/mL).
Induction of delayed type hypersensitivity (DTH) and administration: 30 male Balb/c mice were weighed and randomly divided into 6 groups according to body weight, with 5 mice in each group. The experimental period lasted for 7 days in total. On day 0, the mice were subcutaneously injected with sheep red blood cells (SRBCs) for sensitization. From day 0, the mice were administrated with 100 mg/kg by gavage (once a day) until day 6. On day 6, SRBCs were injected into the right hind foot pad of the mice for excitation. On day 7 of the experiment, measurements were conducted, photographs were taken, and the experiment was ended.
Pharmacodynamic detection indicators of disease models: the detection and observation indicators were the degree of redness and swelling and detected thicknesses of paw pads of the mice in the model group as induced by SRBC. The thickness of the right paw was measured as the baseline before the SRBC injection excitation on day 6. At the end of the experiment […], the thickness of the right paw was measured again, and the difference in thickness of the paw before and after the second injection was calculated.
Statistical processing: experimental data was expressed as mean±standard deviation (Mean±SD). All data was statistically analyzed using a T-test. P<0.05 was considered to be statistically different.

[9] = mobility shift assay, Example 136

Chain of JAK1 (P23458 whole entry, species assumed): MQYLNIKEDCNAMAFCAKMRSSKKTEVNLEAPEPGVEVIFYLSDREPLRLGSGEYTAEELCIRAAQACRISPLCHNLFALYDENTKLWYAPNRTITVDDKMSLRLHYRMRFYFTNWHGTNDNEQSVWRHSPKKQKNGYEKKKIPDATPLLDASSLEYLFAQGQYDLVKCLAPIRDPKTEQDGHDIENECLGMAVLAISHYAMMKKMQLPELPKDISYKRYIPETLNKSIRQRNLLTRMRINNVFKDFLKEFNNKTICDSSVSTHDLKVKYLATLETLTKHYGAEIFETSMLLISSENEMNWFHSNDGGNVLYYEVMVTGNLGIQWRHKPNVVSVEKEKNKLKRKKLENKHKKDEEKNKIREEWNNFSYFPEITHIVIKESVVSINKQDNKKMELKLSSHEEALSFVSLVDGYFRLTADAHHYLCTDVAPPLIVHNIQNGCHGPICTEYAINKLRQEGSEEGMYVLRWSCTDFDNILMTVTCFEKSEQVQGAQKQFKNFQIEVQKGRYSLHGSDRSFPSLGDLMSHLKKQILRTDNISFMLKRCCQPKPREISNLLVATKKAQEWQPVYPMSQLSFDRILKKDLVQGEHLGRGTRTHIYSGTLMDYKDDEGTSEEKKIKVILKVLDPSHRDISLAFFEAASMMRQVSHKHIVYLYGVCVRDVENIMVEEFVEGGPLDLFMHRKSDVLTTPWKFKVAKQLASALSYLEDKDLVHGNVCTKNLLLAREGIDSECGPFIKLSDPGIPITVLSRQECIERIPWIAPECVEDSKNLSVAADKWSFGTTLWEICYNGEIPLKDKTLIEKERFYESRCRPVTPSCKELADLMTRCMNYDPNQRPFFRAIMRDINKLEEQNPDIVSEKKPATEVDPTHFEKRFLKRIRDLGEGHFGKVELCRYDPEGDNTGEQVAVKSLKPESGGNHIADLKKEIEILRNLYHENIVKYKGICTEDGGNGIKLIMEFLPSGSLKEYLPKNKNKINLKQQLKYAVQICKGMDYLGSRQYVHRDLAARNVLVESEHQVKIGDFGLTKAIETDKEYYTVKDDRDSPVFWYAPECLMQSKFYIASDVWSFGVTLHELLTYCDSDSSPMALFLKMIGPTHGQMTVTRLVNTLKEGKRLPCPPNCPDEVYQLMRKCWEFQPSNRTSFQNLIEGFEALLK
Chain of JAK2 (O60674 whole entry, species assumed): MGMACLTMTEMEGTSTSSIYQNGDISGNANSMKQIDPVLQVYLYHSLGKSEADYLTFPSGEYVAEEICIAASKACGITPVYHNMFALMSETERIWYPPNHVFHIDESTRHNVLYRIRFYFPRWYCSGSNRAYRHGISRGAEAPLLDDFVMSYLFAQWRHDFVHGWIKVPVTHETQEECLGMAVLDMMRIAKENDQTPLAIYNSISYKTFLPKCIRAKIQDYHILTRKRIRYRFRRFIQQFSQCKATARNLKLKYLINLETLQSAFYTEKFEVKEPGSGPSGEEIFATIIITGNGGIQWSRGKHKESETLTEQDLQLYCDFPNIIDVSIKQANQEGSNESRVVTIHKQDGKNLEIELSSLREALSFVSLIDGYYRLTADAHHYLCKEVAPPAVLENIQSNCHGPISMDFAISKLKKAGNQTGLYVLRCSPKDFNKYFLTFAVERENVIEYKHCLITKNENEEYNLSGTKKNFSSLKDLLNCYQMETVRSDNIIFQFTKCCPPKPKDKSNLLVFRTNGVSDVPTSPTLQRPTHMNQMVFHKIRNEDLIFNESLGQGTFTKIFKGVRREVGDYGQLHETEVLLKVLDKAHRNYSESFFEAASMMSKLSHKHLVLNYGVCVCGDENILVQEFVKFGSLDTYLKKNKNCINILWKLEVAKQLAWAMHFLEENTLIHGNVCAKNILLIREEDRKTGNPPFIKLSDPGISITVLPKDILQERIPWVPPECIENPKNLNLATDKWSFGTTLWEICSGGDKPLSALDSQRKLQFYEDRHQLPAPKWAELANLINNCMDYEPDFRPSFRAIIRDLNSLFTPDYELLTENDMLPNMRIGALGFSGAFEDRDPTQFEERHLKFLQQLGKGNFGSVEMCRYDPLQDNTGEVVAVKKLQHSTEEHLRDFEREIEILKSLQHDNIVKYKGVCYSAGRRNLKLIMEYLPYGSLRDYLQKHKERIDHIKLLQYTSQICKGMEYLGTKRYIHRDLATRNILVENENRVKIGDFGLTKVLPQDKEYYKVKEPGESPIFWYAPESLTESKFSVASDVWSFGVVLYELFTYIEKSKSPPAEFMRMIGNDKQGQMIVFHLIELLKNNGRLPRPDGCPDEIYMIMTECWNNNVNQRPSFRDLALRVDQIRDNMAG
Chain of TYK2 (P29597 whole entry, species assumed): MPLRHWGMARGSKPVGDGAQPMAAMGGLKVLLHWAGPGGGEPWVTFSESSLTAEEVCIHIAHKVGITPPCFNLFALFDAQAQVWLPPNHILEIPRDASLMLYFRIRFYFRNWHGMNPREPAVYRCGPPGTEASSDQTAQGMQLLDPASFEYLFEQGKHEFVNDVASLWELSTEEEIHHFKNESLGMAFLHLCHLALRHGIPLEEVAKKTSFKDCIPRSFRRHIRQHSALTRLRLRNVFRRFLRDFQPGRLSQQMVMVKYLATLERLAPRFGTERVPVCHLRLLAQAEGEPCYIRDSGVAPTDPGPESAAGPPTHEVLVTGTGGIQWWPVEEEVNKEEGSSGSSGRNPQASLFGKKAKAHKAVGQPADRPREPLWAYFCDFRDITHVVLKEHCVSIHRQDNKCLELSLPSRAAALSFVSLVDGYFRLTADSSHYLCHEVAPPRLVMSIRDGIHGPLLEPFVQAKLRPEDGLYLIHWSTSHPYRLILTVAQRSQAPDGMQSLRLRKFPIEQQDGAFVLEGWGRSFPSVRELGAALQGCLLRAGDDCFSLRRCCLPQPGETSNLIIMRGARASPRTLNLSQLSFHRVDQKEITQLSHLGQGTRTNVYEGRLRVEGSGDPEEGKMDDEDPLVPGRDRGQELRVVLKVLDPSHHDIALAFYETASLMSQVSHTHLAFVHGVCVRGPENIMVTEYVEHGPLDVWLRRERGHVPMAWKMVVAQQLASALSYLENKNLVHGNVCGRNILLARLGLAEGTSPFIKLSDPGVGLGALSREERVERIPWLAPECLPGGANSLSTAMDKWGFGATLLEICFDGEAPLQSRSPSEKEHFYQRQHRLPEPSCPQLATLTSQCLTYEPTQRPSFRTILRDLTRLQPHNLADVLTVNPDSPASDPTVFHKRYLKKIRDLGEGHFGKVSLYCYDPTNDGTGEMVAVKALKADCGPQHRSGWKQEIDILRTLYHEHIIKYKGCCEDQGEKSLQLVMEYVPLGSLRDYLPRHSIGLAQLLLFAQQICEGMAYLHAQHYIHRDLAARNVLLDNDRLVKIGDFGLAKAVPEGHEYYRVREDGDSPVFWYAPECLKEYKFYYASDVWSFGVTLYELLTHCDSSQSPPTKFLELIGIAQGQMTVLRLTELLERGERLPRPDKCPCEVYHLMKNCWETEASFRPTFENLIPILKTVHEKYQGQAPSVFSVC

SMILES: C=CC(=O)N1C[C@H](Nc2ncnc3[nH]ccc23)CC[C@@H]1C [PF-06651600, reference compound]
pIC50 [1]: 7.07
swelling of the paws [2]: improved to varying degrees
arthritis scores ([2]; compared to the model group): significantly reduced

SMILES: C=CC(=O)N1CCc2[nH]nc(-c3ccnc4[nH]ccc34)c2C1 [YZ001065]
pIC50 [3, 9]: 9.15
pIC50 [1]: 7.58
immunosuppressive effect on SRBC-induced delayed type hypersensitivity (right paw thickness) [8]: significant immunosuppressive effects

SMILES: C=CC(=O)N1Cc2c(-c3ccnc4[nH]ccc34)nn(C(C)C)c2C[C@H]1C [YZ001085]
pIC50 [3, 9]: 9.28
immunosuppressive effect on SRBC-induced delayed type hypersensitivity (right paw thickness) [8]: significant immunosuppressive effects

Further lines, with some results ahead:

pIC50 ([3]; selectivity table, Example 137): 7.80
pIC50 [4]: < 5.00
pIC50 [5]: < 5.00
pIC50 [6]: < 5.00
SMILES: C[C@@H]1Cn2ncc(-c3ccnc4[nH]ccc34)c2CN1C(=O)/C=C/CN(C)C [YZ001005]

AUClast_D [7]: 93.88 kg·ng·h/mL/mg
Cl_F_obs [7]: 235.1403 mL/min/kg
HL_Lambda_z [7]: 1.4162 h
Vz_F_obs [7]: 34.35946 L/kg
AUC(0-t) ([7]; Sprague-Dawley (SD), rat, po): 1880 ng·h/mL
Cmax ([7]; Sprague-Dawley (SD), rat, po): 1360 ng/mL
Tmax ([7]; Sprague-Dawley (SD), rat, po): 4.5 h
AUC(0-inf) ([7]; Sprague-Dawley (SD), rat, po, read-out: AUCINF_obs): 1900 ng·h/mL
MRT inf ([7]; Sprague-Dawley (SD), rat, po, read-out: MRTINF_obs): 1.95 h
SMILES: C=C(F)C(=O)N1CCc2c(c(-c3ccnc4[nH]ccc34)nn2C)C1 [YZ001054]
immunosuppressive effect on SRBC-induced delayed type hypersensitivity (right paw thickness) [8]: significant immunosuppressive effects

pIC50 [4]: < 5.00
pIC50 [5]: < 5.00
pIC50 [6]: < 5.00
SMILES: C=CC(=O)N1Cc2c(-c3ccnc4[nH]ccc34)cnn2C[C@H]1C [YZ001001]

pIC50 [3, 9]: 8.92
SMILES: C=C(F)C(=O)N1Cc2c(-c3ccnc4[nH]ccc34)cnn2C[C@H]1CCS(C)(=O)=O [YZ001075]
pIC50 [1]: 7.50
